# Measured values published in the CATMoS acute toxicity set (Mansouri et al. 2021).
# Assay: GHS categories as the set defines them, by LD50: 1 up to 5, 2 up to 50, 3 up to 300, 4 up to 2000, 5 above 2000 mg/kg
# Conditions: rat; in vivo; po
row,SMILES,GHS category
1,N#CNC1=NCCS1,4
2,CNC(=O)N(C)c1nc2ccccc2s1,5
3,CCCCn1c(C)c(CC(=O)O)c2c1CC(C)(C)CC2=O,5
4,CCCCCCCN(CCCCCCC)CC(O)c1cc2ccccc2c2cc(Br)ccc12 (configuration not stated),5
5,CC(C)(N=C(O)C(Br)C(C)(C)C)c1ccccc1 (configuration not stated),5
6,COC(=O)C1=C(C)NC(C)=C(C(=O)O)C1c1cc([N+](=O)[O-])ccc1F (configuration not stated),5
7,CCCCC(CC)COC(=O)C1CCC(C(=O)OCC(CC)CCCC)CC1 (configuration not stated),5
8,CCC(=O)C(C)CO (configuration not stated),5
9,CCOC(=O)c1ocnc1C,5
10,CN(C)CCCNc1nc2cc(Cl)ccc2o1,4
11,CCS(=O)c1c(C#N)nn(-c2c(Cl)cc(C(F)(F)F)cc2Cl)c1N (configuration not stated),5
12,CCC(C)(CC)c1ccc(NC(=O)c2c(OC)cccc2OC)nn1,4
13,CCCCCCCCCCCCCCCC(=O)OCC(CC)CCCC (configuration not stated),5
14,CN1C(=O)COc2cc(C(=O)C=Cc3ccc(O)cc3)ccc21,5
15,CC[C@H]1OC(=O)C[C@@H](O)[C@H](C)[C@@H](O[C@@H]2O[C@H](C)[C@@H](O[C@H]3C[C@@](C)(O)[C@@H](O)[C@H](C)O3)[C@H](N(C)C)[C@H]2O)[C@@H](CC=O)C[C@@H](C)C(=O)C=CC(C)=C[C@@H]1CO[C@@H]1O[C@H](C)[C@@H](O)[C@@H](OC)[C@H]1OC,5
16,Cn1c(=O)oc2cc(C(=O)c3ccc(Cl)cc3)ccc21,5
17,CC(CCc1ccccc1)NCC(O)c1ccc(O)c(C(N)=O)c1 (configuration not stated),5
18,CC(C)(C)c1ccc(N(CCN2CCCCC2)c2cccc(Cl)c2)cc1,5
19,CCCC(CCC)C(=O)Oc1cc(C(C)C)ccc1C,5
20,CCOC(=O)C(=O)Nc1cc(OCCOC)nc(C)n1,4
21,CC(=O)c1c(C)c([N+](=O)[O-])c(C(C)(C)C)c([N+](=O)[O-])c1C,5
22,CC1CC(c2ccccc2)C(c2ccccc2)C(=O)O1 (configuration not stated),4
23,CC1(C)S[C@@H]2[C@H](NC(=O)[C@H](N)c3ccccc3)C(=O)N2[C@H]1C(=O)OCOC(=O)[C@@H]1N2C(=O)C[C@H]2S(=O)(=O)C1(C)C,5
24,Cn1c(=O)oc2cc(C(=O)c3cccs3)ccc21,5
25,CCOP(Oc1c(C)cc(C(C)(C)C)cc1C(C)(C)C)Oc1c(C)cc(C(C)(C)C)cc1C(C)(C)C,5
26,CCC(=O)O[C@]1(C(C)=O)CC[C@H]2[C@@H]3CCC4=CC(=O)C=C[C@]4(C)[C@H]3[C@@H](O)C[C@@]21C,5

row,SMILES,GHS category
1,Cc1cccc(C)c1OP(=O)(Oc1c(C)cccc1C)Oc1c(C)cccc1C,5
2,CCS(=O)(=O)CCC(=O)NNC(=O)N1Cc2ccccc2Oc2ccc(Cl)cc21,5
3,CSC(C)=NOC(=O)N(C)SN(C)C(=O)Oc1ccc(Sc2ccc(OC(=O)N(C)SN(C)C(=O)ON=C(C)SC)cc2)cc1,4
4,CNC(=O)C(=NNc1ccc([N+](=O)[O-])cc1OC)C(C)=O,5
5,CCOc1ccc(NC(=O)OC(C)C)cc1OCC,5
6,O=C(O)c1cc(O)c2c3nc4ccccc4oc-3cc(=O)c2n1,5
7,CCCCCCCCC(C)C=O (configuration not stated),5
8,Cn1cc(C(=O)Cl)c(C(F)F)n1,5
9,CCOC(=O)C(C)(C)NC(=O)c1cnc2cccc(C)n2c1=O,3
10,CC1(C)S[C@@H]2[C@H](N3C(=O)C(c4ccccc4)NC3(C)C)C(=O)N2[C@H]1C(=O)O (some centres not stated),5
11,CC(=O)CCC=C(C)CC/C=C(\C)CC/C=C(\C)CCC=C(C)C,5
12,OC[C@@H](O)[C@@H](O[C@@H]1O[C@H](CO)[C@H](O)[C@H](O)[C@H]1O)[C@H](O)[C@@H](O)CO,5
13,O=c1[nH]n(-c2cccc(C(F)(F)F)c2)c2ncccc12,4
14,CCCCCCCCOC(=O)c1ccc(C(=O)OCCCCCCCC)cc1,5
15,Cc1ccc(C2CC(=O)C(C(=O)CCc3ccc4c(c3)OCO4)C(=O)C2)cc1 (configuration not stated),5
16,COc1ccc(OCCCCN2CCN(CCc3cc(OC)c(OC)c(OC)c3)CC2)c(C2Sc3ccccc3N2C(C)=O)c1 (configuration not stated),4
17,O=C(NCc1ncc(C(F)(F)F)cc1Cl)c1c(Cl)cccc1Cl,5
18,CN(CC(=O)O)N=O,5
19,BrC1CC(Br)CC(Br)CC(Br)CC(Br)CC(Br)C1 (mixture of isomers),5
20,CN(C)c1ccc(C=Nc2ccccc2C(=O)O)cc1,4
21,CCN(CC)C(=O)CCSCc1nnnn1C,4
22,CCC[C@H]1CCO[C@@H](C)S1,5
23,O=C(c1ccc(F)cc1)c1cc(I)ccc1Cl,5
24,CO[Si](C)(OC)OC,5
25,CCOC[C@H]1CO[C@@](Cn2ccnc2)(c2cc3cc(Cl)cc(Cl)c3o2)O1,4
26,CC1(C)COC(Cn2ccnc2)(c2cc3ccccc3o2)OC1,4
